Source: US20260365628A1, “SUBSTITUTED 3,4-DIHYDROQUINOLINONE INHIBITORS OF TSHR” (Septerna, Inc., priority 2022, published 2026)

Each molecule was assayed against T1, hTSHR (Homo sapiens, UniProt P16473) (assay: hTSHR TR-FRET cAMP Assay (inhibition of M22-stimulated cAMP production)). Details: Expi293F Inducible cells stably expressing hTSHR; cAMP HTRF; stimulated with EC80 of anti-TSHR antibody M22; 15 min compound preincubation, 30 min at 37° C.; read-out: Activity (IC50 bins).
T1 construct: expressed in transfected cells
T1 sequence (P16473 21-764): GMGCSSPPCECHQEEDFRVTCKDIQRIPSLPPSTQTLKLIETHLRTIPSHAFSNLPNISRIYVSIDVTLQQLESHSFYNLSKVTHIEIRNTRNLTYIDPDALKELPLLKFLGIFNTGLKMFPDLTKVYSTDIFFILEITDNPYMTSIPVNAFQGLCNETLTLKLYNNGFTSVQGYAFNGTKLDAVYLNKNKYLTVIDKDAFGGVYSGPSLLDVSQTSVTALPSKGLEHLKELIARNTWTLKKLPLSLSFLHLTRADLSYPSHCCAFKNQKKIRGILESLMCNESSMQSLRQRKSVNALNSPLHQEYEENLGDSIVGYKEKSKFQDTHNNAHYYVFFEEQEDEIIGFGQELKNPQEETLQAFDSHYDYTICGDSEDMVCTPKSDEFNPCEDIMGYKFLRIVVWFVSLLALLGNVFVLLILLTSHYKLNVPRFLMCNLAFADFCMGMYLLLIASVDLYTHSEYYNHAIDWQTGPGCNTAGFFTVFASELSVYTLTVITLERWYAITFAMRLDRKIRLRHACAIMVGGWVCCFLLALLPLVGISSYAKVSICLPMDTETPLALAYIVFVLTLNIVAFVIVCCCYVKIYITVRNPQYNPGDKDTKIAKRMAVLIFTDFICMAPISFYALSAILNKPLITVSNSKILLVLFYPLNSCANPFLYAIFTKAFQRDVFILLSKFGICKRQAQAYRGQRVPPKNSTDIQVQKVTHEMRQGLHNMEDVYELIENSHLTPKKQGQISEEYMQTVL
Type: cell-based
Procedure, shortened: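 Readout was a cAMP HTRF ratio of 655/620 nm after lysis, scaled between the EC80 M22 signal (0% inhibition) and no-agonist vehicle (100%). Frozen induced Expi293F-hTSHR cells saw test compounds (0.5% DMSO) for 15 min at 37 °C before 30 min of M22 stimulation at EC80.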

Structure (SMILES) | IC50
Cc1cccc(CN2C(=O)[C@@H](C)Oc3cc(NC(=O)NC(C)(C)C)ccc32)c1 [Example 157, 3-tert-butyl-1-[(2R)-2-methyl-4-[(3-methylphenyl)methyl]-3-oxo-2H-1,4-benzoxazin-7-yl]urea] | < 100 nM
COc1cccc(CN2C(=O)CCc3cc(NC(=O)NC(C)(C)C)ccc32)c1 [Example 22, 1-(tert-butyl)-3-(1-(3-methoxybenzyl)-2-oxo-1,2,3,4-tetrahydroquinolin-6-yl)urea] | < 100 nM
CC(C)(C)NC(=O)Nc1ccc2c(c1)ncc(=O)n2Cc1cccc(OC(F)(F)F)c1 [Example 91, 1-(tert-butyl)-3-(2-oxo-1-(3-(trifluoro-methoxy)benzyl)-1,2-di-hydro-quinoxalin-6-yl)urea] | 100 to 1000 nM
CC(C)(C)NC(=O)Nc1ccc2c(c1)CC(C)(C)C(=O)N2Cc1ccccc1 [Example 29, 1-(1-benzyl-3,3-dimethyl-2-oxo-1,2,3,4-tetrahydroquinolin-6-yl)-3-(tert-butyl)urea] | > 1000 nM
CC1CC(=O)N(Cc2ccccc2)c2ccc(NC(=O)NC(C)(C)C)cc21 (stereo not shown) [Example 15, 1-(1-benzyl-4-methyl-2-oxo-1,2,3,4-tetrahydroquinolin-6-yl)-3-(tert-butyl)urea] | > 1000 nM
C[C@@H](c1cc(OC(F)(F)F)ccn1)n1c(=O)cnc2cc(NC(=O)NC(C)(C)C)ccc21 [Example 129, (S)-1-(tert-butyl)-3-(2-oxo-1-(1-(4-(trifluoromethoxy)pyri-din-2-yl)ethyl)-1,2-dihydroquinoxalin-6-yl)urea] | > 1000 nM
C[C@@H](c1ccc(Cl)c(Cl)c1)n1c(=O)cnc2cc(NC(=O)NC(C)(C)C)ccc21 [Example 133, (S)-1-(tert-butyl)-3-(1-(1-(3,4-dichlorophenyl)ethyl)-2-oxo-1,2-dihydroquinoxalin-6-yl)urea] | 100 to 1000 nM
C[C@@H](c1cccc(OC(F)(F)F)c1)n1c(=O)cnc2c(Cl)c(NC(=O)NC(C)(C)C)ccc21 [Example 218, (S)-1-(tert-butyl)-3-(5-chloro-2-oxo-1-(1-(3-(trifluoromethoxy)phenyl)ethyl)-1,2-dihydroquinoxalin-6-yl)urea] | 100 to 1000 nM
C[C@@H](c1ccccc1)n1c(=O)cnc2cc(NC(=O)NC(C)(C)C)c(C3CC3)cc21 [Example 348, 3-tert-butyl-1-{7-cyclopropyl-2-oxo-1-[(1S)-1-phenylethyl]quinoxalin-6-yl}urea] | 100 to 1000 nM
CC(C)(C)NC(=O)Nc1ccc2c(c1)CCC(=O)N2Cc1cccc(C#N)c1 [Example 18, 1-(tert-butyl)-3-(1-(3-cyanobenzyl)-2-oxo-1,2,3,4-tetrahydroquinolin-6-yl)urea] | > 1000 nM
COCC1(NC(=O)Nc2ccc3c(c2)O[C@H](C)C(=O)N3Cc2cccc(C(F)(F)F)n2)CCC1 [Example 233, (R)-1-(1-(methoxymethyl)cyclobutyl)-3-(2-methyl-3-oxo-4-((6-(trifluoromethyl)pyridin-2-yl)methyl)-3,4-dihydro-2H-benzo[b][1,4]oxazin-7-yl)urea] | 100 to 1000 nM
C[C@H]1Oc2cc(NC(=O)NC3(C)CC(F)(F)C3)ccc2N([C@@H](C)c2ccccc2)C1=O [Example 260, 1-(3,3-difluoro-1-methylcyclobutyl)-3-((R)-2-methyl-3-oxo-4-((S)-1-phen-ylethyl)-3,4-dihydro-2H-benzo[b][1,4]oxazin-7-yl)urea] | 100 to 1000 nM
CC(C)(CO)CNC(=O)Nc1ccc2c(c1)ncc(=O)n2Cc1cccc(OC(F)(F)F)c1 [Example 242, 1-(3-hydroxy-2,2-dimethylpropyl)-3-(2-oxo-1-(3-(trifluoromethoxy)benzyl)-1,2-dihydroquinoxalin-6-yl)urea] | > 1000 nM
CC1(NC(=O)Nc2ccc3c(c2)ncc(=O)n3Cc2ccccc2)CCC1 [Example 191, 1-(1-benzyl-2-oxo-1,2-dihydroquinoxalin-6-yl)-3-(1-methylcyclobutyl)urea] | 100 to 1000 nM
CC(C)(C)NC(=O)Nc1ccc2c(c1)CCC(=O)N2Cc1ccccc1F [Example 19, 3-tert-butyl-1-{1-[(2-fluorophenyl)methyl]-2-oxo-3,4-dihydroquinolin-6-yl}urea] | < 100 nM
C[C@@H](c1cccc(N2CCCCC2)c1)n1c(=O)cnc2cc(NC(=O)NC(C)(C)C)ccc21 [Example 127, (S)-1-(tert-butyl)-3-(2-oxo-1-(1-(3-(piperidin-1-yl)phenyl)ethyl)-1,2-dihydroquinoxalin-6-yl)urea] | 100 to 1000 nM
C[C@H]1Oc2cc(NC(=O)NC3(C)COC3)ccc2N([C@@H](C)c2ccccc2)C1=O [Example 262, 1-((R)-2-methyl-3-oxo-4-((S)-1-phenylethyl)-3,4-dihydro-2H-benzo [b][1,4]oxazin-7-yl)-3-(3-methyl-oxetan-3-yl)urea] | > 1000 nM

Structure (SMILES) | IC50
C[C@H](c1nccc(C(F)(F)F)n1)N1C(=O)[C@@H](C)Oc2cc(NC(=O)NC(C)(C)C)ccc21 [Example 317, 1-(tert-butyl)-3-((R)-2-methyl-3-oxo-4-((R)-1-(4-(trifluoromethyl)pyrimidin-2-yl)ethyl)-3,4-dihydro-2H-benzo[b][1,4]oxazin-7-yl)urea] | 100 to 1000 nM
C[C@H]1Oc2cc(NC(=O)NC(C)(C)C)ccc2N(Cc2cccc(OC(F)(F)F)n2)C1=O [Example 166, (R)-1-(tert-butyl)-3-(2-methyl-3-oxo-4-((6-(trifluoro-methoxy)pyridin-2-yl)methyl)-3,4-dihydro-2H-benzo [b][1,4]oxazin-7-yl)urea] | < 100 nM
CC(C)(NC(=O)Nc1ccc2c(c1)ncc(=O)n2Cc1ccccc1)C(F)F [Example 199, 1-(1-benzyl-2-oxo-1,2-dihydroquinoxalin-6-yl)-3-(1,1-difluoro-2-methylpropan-2-yl)urea] | 100 to 1000 nM
COc1cccc([C@H](C)n2c(=O)cnc3cc(NC(=O)NC(C)(C)C)ccc32)n1 [Example 144, (S)-1-(tert-butyl)-3-(1-(1-(6-methoxypyridin-2-yl)ethyl)-2-oxo-1,2-dihydroquinoxalin-6-yl)urea] | 100 to 1000 nM
COCC1(NC(=O)Nc2ccc3c(c2)ncc(=O)n3[C@@H](C)c2cccc(OC(F)(F)F)c2)CCC1 [Example 215, (S)-1-(1-(methoxymethyl)cyclobutyl)-3-(2-oxo-1-(1-(3-(tri-fluoromethoxy)phenyl)ethyl)-1,2-dihydroquinoxalin-6-yl)urea] | 100 to 1000 nM
C[C@H]1Oc2nc(NC(=O)NC(C)(C)C)c(C(F)(F)F)cc2N(Cc2ccccc2)C1=O [Example 368, (R)-1-(1-benzyl-3-methyl-2-oxo-7-(trifluoromethyl)-2,3-dihydro-1H-pyrido[2,3-b][1,4]oxazin-6-yl)-3-(tert-butyl)urea] | < 100 nM
CC(C)(C)NC(=O)Nc1ccc2c(c1)C[C@H](CC#N)C(=O)N2Cc1ccccc1 [Example 275, (R)-1-(1-benzyl-3-(cyanomethyl)-2-oxo-1,2,3,4-tetrahydroquinolin-6-yl)-3-(tert-butyl)urea] | > 1000 nM
Cc1cccc([C@H](C)n2c(=O)cnc3cc(NC(=O)NC(C)(C)C)ccc32)c1 [Example 132, (S)-1-(tert-butyl)-3-(2-oxo-1-(1-(m-tolyl)ethyl)-1,2-dihydroquinoxalin-6-yl)urea] | 100 to 1000 nM
C[C@@H](c1cc(Cl)c(F)cc1F)n1c(=O)cnc2cc(NC(=O)NC(C)(C)C)ccc21 [Example 149, (S)-1-(tert-butyl)-3-(1-(1-(5-chloro-2,4-difluorophenyl)ethyl)-2-oxo-1,2-dihydroquinoxalin-6-yl)urea] | 100 to 1000 nM
C[C@H]1Oc2cc(NC(=O)NC(C)(C)C)ccc2N([C@@H](C)c2cncc(C(F)(F)F)n2)C1=O (single isomer, unassigned) [Example 306] | > 1000 nM
CC(C)(C)NC(=O)Nc1ccc2c(c1)OCC(=O)N2Cc1cccc([C@H](O)C(F)(F)F)c1 [Example 79, (S)-1-(tert-butyl)-3-(3-oxo-4-(3-(2,2,2-trifluoro-1-hy-droxyethyl)benzyl)-3,4-dihydro-2H-benzo[b][1,4]oxa-zin-7-yl)urea] | 100 to 1000 nM
C[C@@H](c1cccc2c1CCOC2)n1c(=O)cnc2cc(NC(=O)NC(C)(C)C)ccc21 [Example 124, (S)-1-(tert-butyl)-3-(1-(1-(isochroman-5-yl)ethyl)-2-oxo-1,2-dihydroquinoxalin-6-yl)urea] | > 1000 nM
C[C@@H](c1cccc(C(F)(F)F)n1)n1c(=O)cnc2cc(NC(=O)CCC(C)(C)C)ccc21 [Example 300, (S)-4,4-dimethyl-N-(2-oxo-1-(1-(6-(trifluoromethyl)pyridin-2-yl)ethyl)-1,2-dihydroquinoxalin-6-yl)pentanamide] | 100 to 1000 nM
C[C@@H](c1cccc(C(F)(F)F)c1)n1c(=O)cnc2cc(NC(=O)NC3(C)CCC3)ccc21 [Example 320, (S)-1-(1-methylcyclobutyl)-3-(2-oxo-1-(1-(3-(trifluoromethyl)phenyl)ethyl)-1,2-dihydroquinoxalin-6-yl)urea] | 100 to 1000 nM
CC(C)(C)NC(=O)Nc1ccc2c(c1)OCC(=O)N2Cc1cccc(C(O)C(F)(F)F)c1 (stereo not shown) [Example 77, 1-(tert-butyl)-3-(3-oxo-4-(3-(2,2,2-trifluoro-1-hy-droxyethyl)benzyl)-3,4-dihydro-2H-benzo[b][1,4]oxa-zin-7-yl)urea] | 100 to 1000 nM
C[C@@H](c1cccc(OC(F)(F)F)c1)n1c(=O)cnc2cc(NC(=O)NC3(C(F)(F)F)CC(F)(F)C3)ccc21 [Example 225, (S)-1-(3,3-difluoro-1-(trifluoromethyl)cyclobutyl)-3-(2-oxo-1-(1-(3-(trifluoromethoxy)phenyl)ethyl)-1,2-dihydroquinoxalin-6-yl)urea] | 100 to 1000 nM
CC(C)(C)NC(=O)Nc1ccc2c(c1)OC(CF)C(=O)N2Cc1ccccc1 (stereo not shown) [Example 305, 1-[4-benzyl-2-(fluoromethyl)-3-oxo-2H-1,4-benzoxazin-7-yl]-3-tert-butylurea] | 100 to 1000 nM
